19 compounds from patent US9617237B2, “Partially saturated tricyclic compounds and methods of making and using same” (Zafgen, Inc., priority 2011, dated 2017) can be followed below.

The target of the test is T1, recombinant human MetAP2 (Homo sapiens, UniProt P50579).
T1 construct: made in house; host or cells: Sf9 insect cells
T1 sequence (P50579 whole entry): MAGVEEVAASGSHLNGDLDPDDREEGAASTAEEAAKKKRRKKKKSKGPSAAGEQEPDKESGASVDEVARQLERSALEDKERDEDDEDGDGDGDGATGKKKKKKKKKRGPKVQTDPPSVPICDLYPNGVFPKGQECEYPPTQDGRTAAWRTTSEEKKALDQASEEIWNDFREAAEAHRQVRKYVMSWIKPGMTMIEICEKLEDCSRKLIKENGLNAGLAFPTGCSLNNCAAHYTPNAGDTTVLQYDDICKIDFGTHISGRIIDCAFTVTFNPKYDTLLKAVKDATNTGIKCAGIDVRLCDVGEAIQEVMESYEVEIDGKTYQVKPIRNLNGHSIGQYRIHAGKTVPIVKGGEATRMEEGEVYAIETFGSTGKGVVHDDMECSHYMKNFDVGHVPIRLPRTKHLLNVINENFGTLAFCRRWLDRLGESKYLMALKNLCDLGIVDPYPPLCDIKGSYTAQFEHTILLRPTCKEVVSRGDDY
The test is described as follows: Inhibition of recombinant human MetAP2 activity (fluorescence, MAS substrate, amino acid oxidase/Amplex red). Particulars: manganese enzyme; 0.75 mM Methionine-Alanine-Serine (MAS) substrate; 30 minutes at 25° C.; pH 7.5; 1% DMSO. The test is classed as biochemical. As to the method:
Compounds are tested for their capacity to inhibit recombinant human MetAP2 activity using the following assay.
Human recombinant MetAP2 expressed in Sf9 cells followed by affinity purification and EDTA treatment to remove endogenous active site cation was dialysed against MnCl2 to produce the manganese enzyme used in the assay. The assay was carried out for 30 minutes at 25° C. in 50 mM HEPES buffer containing 100 mM NaCl, pH 7.5 the presence of 0.75 mM Methionine-Alanine-Serine (MAS) substrate and 50 μg/ml amino acid oxidase using a dilution of purified MetAP2 giving >3-fold signal: noise. Cleavage of the substrate by MetAP2 and oxidation of free methionine by amino acid oxidase was detected and quantified using fluorescence generated by Amplex red (10-acetyl-3,7-dihydroxyphenoxazine) in combination with horseradish peroxidase which detects H2O2 released during the oxidation step. The fluorescent signal was detected using a multiwell fluorimeter. Compounds were diluted in DMSO prior to addition to assay buffer, the final DMSO concentration in the assay being 1%.
IC50 values are calculated using the XLfit software package (version 2.0.5).
For the compound `CN(C)CCCCNc1cc(F)ccc1S(=O)(=O)Nc1ccc2c(c1C(=O)O)OC[C@@H]1C[C@H]21` (racemic) [(1aRS,7bSR)-5-[2-(4-Dimethylaminobutylamino)-4-fluoro-benzenesulfonyl-amino]-1,1a,2,7b-tetrahydrocyclopropa-[c]chromene-4-carboxylic acid], the IC50 was in the range of 50 to 500 nM. Then `CCN1CCCC1C(=O)NCc1cc(F)ccc1S(=O)(=O)Nc1ccc2c(c1C(=O)O)OCC1CC21` (mixture of isomers) [(1aRS,7bSR)-5-{2-[((S)-1-Ethylpyrrolidin-2-yl)cabonyl-aminomethyl]-4-fluorobenzenesulfonylamino}-1,1a,2,7b-tetrahydrocyclopropa[c]chromene-4-carboxylic acid], with below 50 nM; and `CCN(CC)C/C=C\c1cc(F)ccc1S(=O)(=O)Nc1ccc2c(c1C(=O)O)OC[C@H]1C[C@@H]21` [(1aS,7bR) 5-[2-((Z)-3-Diethylaminoprop-1-enyl)-4-fluorobenzenesulfonyl-amino]-1,1a,2,7b-tetrahydrocyclopropa[c]chromene-4-carboxylic acid], with 50 to 500 nM; and `CCN1CCC[C@@H]1C(=O)N(C)Cc1cc(F)ccc1S(=O)(=O)Nc1ccc2c(c1C(=O)O)OCC1CC21` (mixture of isomers) [(1aRS,7bSR)-5-(2-{N-[((R)-1-Ethylpyrrolidine-2-yl)carbonyl]-N-methylaminomethyl}-4-fluorobenzenesulfonylamino)-1,1a,2,7b-tetrahydrocyclopropa[c]chromene-4-carboxylic acid], with 50 to 500 nM. As for `CCN1CC[C@@H](Cc2cc(F)ccc2S(=O)(=O)Nc2ccc3c(c2C(=O)O)OC[C@@H]2C[C@H]32)C1` (mixture of isomers) [(1aRS,7bSR)-5-[2-((R)-1-Ethylpyrrolidin-3-ylmethyl)-4-fluorobenzenesulfonyl-amino]-1,1a,2,7b-tetrahydro-cyclopropa[c]chromene-4-carboxylic acid], the figure is below 50 nM; as for `CCN1CC[C@@H](CCNc2ccccc2S(=O)(=O)Nc2ccc3c(c2C(=O)O)OC[C@@H]2C[C@H]32)C1` (mixture of isomers) [(1aRS,7bSR)-5-{2-[2-((R)-1-Ethylpyrrolidin-3-yl)ethylamino]-benzenesulfonylamino}-1,1a,2,7b-tetrahydrocyclopropa-[c]chromene-4-carboxylic acid], 50 to 500 nM. In the case of `CCN1CC[C@@H](NCCc2cc(F)ccc2S(=O)(=O)Nc2ccc3c(c2C(=O)O)OC[C@@H]2C[C@H]32)C1` (mixture of isomers) [(1aRS,7bSR)-5-{2-[2-((R)-1-Ethylpyrrolidin-3-ylamino)ethyl]-4-fluoro-benzenesulfonylamino}-1,1a,2,7b-tetrahydrocyclopropa-[c]chromene-4-carboxylic acid], the IC50 is 50 to 500 nM. As for `CCN1CC[C@H](C(=O)NCc2cc(F)ccc2S(=O)(=O)Nc2ccc3c(c2C(=O)O)OCC2CC32)C1` (mixture of isomers) [(1aRS,7bSR)-5-(2-{[((S)-1-ethylpyrrolidine-3-carbonyl)amino]methyl}-4-fluoro-benzenesulfonylamino)-1,1a,2,7b-tetrahydrocyclopropa[c]chromene-4-carboxylic acid], the figure is 50 to 500 nM; as for “(1aRS,7bSR)-5-{2[(Z)-3-((R)-3-Hydroxypyrrolidin-1-yl)aminoprop-1-enyl]-4-fluorobenzene-sulfonylamino}-1,1a,2,7b-tetrahydro-cyclopropa[c]chromene-4-carboxylic acid”, 50 to 500 nM.

As to `O=C(O)c1c(NS(=O)(=O)c2ccc(F)cc2/C=C\CN2CCC2)ccc2c1OC[C@@H]1C[C@H]21` (racemic) [(1aRS,7bSR)-5-{2[(Z)-3-(Azetidin-1-yl)prop-1-enyl]-4-fluorobenzene-sulfonylamino}-1,1a,2,7b-tetrahydro-cyclopropa[c]chromene-4-carboxylic acid], the IC50 fell in the range of 50 to 500 nM. For the compound `O=C(O)c1c(NS(=O)(=O)c2ccc(F)cc2CCCN2CCC2)ccc2c1OCC1CC21` (stereo not drawn) [(1aRS,7bSR)-5-{2[(Z)-3-(Azetidin-1-yl)propyl]-4-fluorobenzenesulfonylamino}-1,1a,2,7b-tetrahydrocyclopropa[c]chromene-4-carboxylic acid], the IC50 lay in the range of 50 to 500 nM. Then `CCN(CC)C/C(C)=C\c1cc(F)ccc1S(=O)(=O)Nc1ccc2c(c1C(=O)O)OC[C@@H]1C[C@H]21` (racemic) [(1aRS,7bSR)-5-[2-((Z)-3-Diethylamino-2-methylprop-1-enyl)-4-fluorobenzene-sulfonylamino]-1,1a,2,7b-tetrahydrocyclopropa-[c]chromene-4-carboxylic acid], with below 50 nM.

For `CCN1CC[C@@H](CNc2ccccc2S(=O)(=O)Nc2ccc3c(c2C(=O)O)OC[C@@H]2C[C@H]32)C1` (mixture of isomers) [(1aRS,7bSR)-5-{2-[((S)-1-Ethylpyrrolidin-3-ylmethyl)amino]-benzenesulfonylamino}-1,1a,2,7b-tetrahydrocyclopropa-[c]chromene-4-carboxylic acid], the concentration for half-maximal inhibition (IC50) lay in the range of 50 to 500 nM. As for `CCN(CC)CCCCc1cc(F)ccc1S(=O)(=O)Nc1ccc2c(c1C(=O)O)OCC1CC21` (stereo not drawn) [(1aRS,7bSR)-5-[2((Z)-4-Diethylaminobutyl)-4-fluorobenzenesulfonylamino]-1,1a,2,7b-tetrahydrocyclopropa[c]chromene-4-carboxylic acid], the figure is 50 to 500 nM; as for `CCN1CC[C@H](CNc2ccccc2S(=O)(=O)Nc2ccc3c(c2C(=O)O)OC[C@@H]2C[C@H]32)C1` (mixture of isomers) [(1aRS,7bSR)-5-{2-[((R)-1-Ethylpyrrolidin-3-ylmethyl)amino]-benzenesulfonylamino}-1,1a,2,7b-tetrahydrocyclopropa-[c]chromene-4-carboxylic acid], 50 to 500 nM; as for `CCN1CCC[C@H]1CCc1cc(F)ccc1S(=O)(=O)Nc1ccc2c(c1C(=O)O)OC[C@@H]1C[C@H]21` [(1aR,7bS)-5-{2-[2-((R)-1-Ethylpyrrolidin-2-yl)ethyl]-4-fluorobenzenesulfonyl-amino}-1,1a,2,7b-tetrahydrocyclopropa-[c]chromene-4-carboxylic acid], 50 to 500 nM. As to `O=C(O)c1c(NS(=O)(=O)c2ccc(F)cc2/C=C\CNN2CC[C@H](O)C2)ccc2c1OC[C@@H]1C[C@H]21` [(1aRS,7bSR)-5-{2[(Z)-3-((S)-3-hydroxypyrrolidin-1-y)aminoprop-1-enyl]-4-fluorobenzenesulfonylamino}-1,1a,2,7b-tetrahydrocyclopropa[c]chromene-4-carboxylic acid], the IC50 lay within 50 to 500 nM. Then `CCN1CC(CCc2cc(F)ccc2S(=O)(=O)Nc2ccc3c(c2C(=O)O)OC[C@@H]2C[C@H]32)C1` (racemic) [(1aRS,7bSR)-5-{2-[2-(1-Ethylazetidin-3-yl)ethyl]-4-fluoro-benzenesulfonyl-amino}-1,1a,2,7b-tetrahydrocyclopropa-[c]chromene-4-carboxylic acid], with 50 to 500 nM; and `CCN1CCC[C@@H]1C(=O)NCc1cc(F)ccc1S(=O)(=O)Nc1ccc2c(c1C(=O)O)OC[C@@H]1C[C@H]21` (mixture of isomers) [(1aRS,7bSR)-5-(2-{[((R)-1-Ethylpyrrolidine-2-yl)carbonyl-amino]methyl}-4-fluorobenzenesulfonylamino)-1,1a,2,7b-tetrahydrocyclopropa[c]chromene-4-carboxylic acid], with 50 to 500 nM.
